16 compounds from ChEMBL document CHEMBL5154661, “Novel 2-phenyl-3-(Pyridin-2-yl) thiazolidin-4-one derivatives as potent inhibitors for proliferation of osteosarcoma cells in vitro and in vivo” (Eur J Med Chem, 2022) can be followed below.

As usually defined, the IC50 is the concentration that inhibits the measured activity by half. In general, inhibition refers to how much of the control response was suppressed.

Structures are written as SMILES. ≈ marks a conversion by molar mass, not a printed value.

Series [1] has as its system HOS-TE85. Briefly: Antiproliferative activity against human MNNG/HOS cells assessed as cell growth inhibition measured after 72 hrs by CCK-8 assay. In kind it is functional, cell-based. Particulars: HOS-TE85, 72 h. A general note: Formazan colour is commonly taken as a measure of viable cells.
Series [2] in a line: Microsomal stability in human liver microsomes assessed as intrinsic clearance at 0.1 uM incubated for 10 mins in presence of NADPH by LC-MS/MS analysis. The class given is ADME, Microsome. In general terms: Microsomes from liver hold many membrane-bound enzymes, among them those of drug oxidation.
The nature of series [3]: Microsomal stability in rat liver microsomes assessed as intrinsic clearance at 0.1 uM incubated for 10 mins in presence of NADPH by LC-MS/MS analysis. In kind it is ADME, Microsome.
The nature of series [4]: Microsomal stability in mouse liver microsomes assessed as intrinsic clearance at 0.1 uM incubated for 10 mins in presence of NADPH by LC-MS/MS analysis. In kind it is ADME, Microsome.
Series [5] is described as follows: Kinetic solubility of compound at pH 6.8 by turbidimetry method. The note with it: buffer, read-out: Kinetic_solubility. The class given is physicochemical.
The nature of series [6]: Kinetic solubility of compound at pH 7.4 by turbidimetry method. In kind it is physicochemical. Particulars: buffer, read-out: Kinetic_solubility.
Series [7] relates to SJSA-1. Briefly: Antiproliferative activity against human SJSA-1 assessed as cell growth inhibition at 1 uM measured after 72 hrs by CCK-8 assay relative to control. The class given is functional.
The next series relates to U2OS. Briefly: Antiproliferative activity against human U2OS cells assessed as cell growth inhibition at 1 uM measured after 72 hrs by CCK-8 assay relative to control. In kind it is functional.
The test system of a further series is HOS. Briefly: Antiproliferative activity against human HOS cells assessed as cell growth inhibition at 1 uM measured after 72 hrs by CCK-8 assay relative to control. The class given is functional.
For series [8], the system named is HOS-TE85. Briefly: Antiproliferative activity against human MNNG/HOS cells assessed as cell growth inhibition at 1 uM measured after 72 hrs by CCK-8 assay relative to control. The class given is functional.
Series [9] deals with MG-63. Briefly: Antiproliferative activity against human MG-63 cells assessed as cell growth inhibition at 1 uM measured after 72 hrs by CCK-8 assay relative to control. The class given is functional.
Another series has as its system 143B. Briefly: Antiproliferative activity against human 143B cells assessed as cell growth inhibition at 1 uM measured after 72 hrs by CCK-8 assay relative to control. The class given is functional.
Series [10] concerns HOS-TE85. Briefly: Antitumor activity against human MNNG/HOS cells xenografted in female BALB/c nude mouse assessed as tumor growth inhibition at 30 mg/kg, po administered daily for 18 days relative to control. The note with it: HOS-TE85, 432 h, time 18 day, read-out: TGI. The class given is functional.
Series [11] can be described thus: Toxicity in BALB/c nude mouse xenografted with human MNNG/HOS cells assessed as body weight loss at 62.5 mg/kg, ip administered twice per day for 18 days. In kind it is organism-based, HOS-TE85. The note with it: in vivo, 432 h, time 18 day. On the technique in general: A xenograft is tissue or cells of one species grown in another, often human tumour cells in immunodeficient mice.

The test system of series [12] is SJSA-1. Briefly: Antiproliferative activity against human SJSA-1 cells assessed as cell growth inhibition measured after 72 hrs by CCK-8 assay. In kind it is functional, cell-based. Particulars: SJSA-1, 72 h.
Series [13] deals with MG-63. Briefly: Antiproliferative activity against human MG-63 cells assessed as cell growth inhibition measured after 72 hrs by CCK-8 assay. The class given is functional, cell-based. Particulars: MG-63, 72 h.

Consider `O=C(NCCCCc1ccccc1)c1cccc(C2SCC(=O)N2c2cccc(F)c2)c1` (stereo not drawn), for which the IC50 with HOS-TE85 [1] is 32.4 nM. Besides, the “intrinsic clearance (CLint)” value in series [2] stood at 1844 mL/min/g; in series [3], 3244 mL/min/g; in series [4] it was 2737 mL/min/g. Besides, the solubility kinetic in series [5] and in series [6] was 10 µM (≈ 4.49 µg/mL) throughout. The inhibition at 1 µM with SJSA-1 [7] was 80%; with U2OS it was 39%; with HOS, 84%; with HOS-TE85 [8], 94%; in the series with MG-63 [9] it was 92%; in the series with 143B, 63%.

As for `CC(F)(F)c1cccc(N2C(=O)CSC2c2cccc(C(=O)NCCCCc3ccccc3)c2)c1` (stereo not drawn), in the series on HOS-TE85 [1], the IC50 was 29.1 nM. Also, the “intrinsic clearance (CLint)” value in series [2] came out at 1750 mL/min/g; in series [3] it was 2323 mL/min/g; in series [4], 2014 mL/min/g. Moreover, the figures for the solubility kinetic in [5] and in series [6] were 10 µM (≈ 4.95 µg/mL) and 2 µM (≈ 0.989 µg/mL), respectively. Also, the inhibition at 1 µM in the series on SJSA-1 [7] came to 68%; with U2OS it was 24%; in the series with HOS, 23%; in the series on HOS-TE85 [8] it was 93%; with MG-63 [9], 92%; in the series on 143B it was 1%.

For `COc1cc(F)ccc1N1C(=O)CSC1c1cccc(C(=O)NCCCCc2ccccc2)c1` (stereo not drawn), in the series with HOS-TE85 [1], the 50% inhibitory concentration (IC50) came out at 71.1 nM. The inhibition at 1 µM is 77% with SJSA-1 [7]; 34% with U2OS; 81% in the series with HOS; 94% in the series with HOS-TE85 [8]; 92% in the series with MG-63 [9]; 63% in the series with 143B.

Regarding `O=C(NCCCCc1ccccc1)c1cccc(C2SCC(=O)N2c2ccccc2F)c1` (stereo not drawn), in the series with HOS-TE85 [1], the IC50 worked out at 34.1 nM. The results for the “intrinsic clearance (CLint)” value in [2], in [3] and in [4] were 1712 mL/min/g, 2946 mL/min/g and 2014 mL/min/g, respectively. Moreover, the solubility kinetic was found to be 20 µM (≈ 8.97 µg/mL) in series [5] and 10 µM (≈ 4.49 µg/mL) in series [6]. The inhibition at 1 µM in the series on SJSA-1 [7] was determined as 80%; in the series with U2OS, 38%; in the series with HOS it was 83%; with HOS-TE85 [8], 95%; in the series on MG-63 [9], 92%; in the series with 143B, 59%.

Consider `COc1cccc(OC)c1N1C(=O)CSC1c1cccc(C(=O)NCCCCc2ccccc2)c1` (stereo not drawn), for which the half-maximal inhibitory concentration (IC50) in the series on HOS-TE85 [1] is > 1000 nM. The inhibition at 1 µM in the series with SJSA-1 [7] is 72%; in the series with U2OS it was 41%; with HOS it was 80%; in the series on HOS-TE85 [8] it was 95%; in the series with MG-63 [9], 80%; in the series on 143B it was 31%.

Regarding `COc1ccccc1N1C(=O)C(C)SC1c1cccc(C(=O)NCCCCc2ccccc2)c1` (stereo not drawn), in the series on HOS-TE85 [1], the IC50 turned out to be 45.1 nM. In addition, the “intrinsic clearance (CLint)” value in [2] was 2657 mL/min/g; in series [3], 2908 mL/min/g; in series [4], 2948 mL/min/g. Besides, the solubility kinetic in series [5] is 20 µM (≈ 9.49 µg/mL); in [6], 10 µM (≈ 4.75 µg/mL). Besides, the inhibition at 1 µM in the series on SJSA-1 [7] was 84%; in the series on U2OS it was 38%; in the series on HOS, 82%; in the series on HOS-TE85 [8] it was 95%; in the series on MG-63 [9] it was 94%; in the series on 143B it was 61%.

Take `CNC(=O)c1cc(Oc2ccc(NC(=O)Nc3ccc(Cl)c(C(F)(F)F)c3)cc2)ccn1` [SORAFENIB]: in the series on HOS-TE85 [10], the inhibition in vivo at 30 mg/kg was 44.2%. Besides, the Activity result in series [11] is on record as “Non-Toxic”.

For `COc1ccc(C)cc1N1C(=O)CSC1c1cccc(C(=O)NCCCCc2ccccc2)c1` (stereo not drawn), the IC50 in the series with HOS-TE85 [1] worked out at 300 nM. In addition, the inhibition at 1 µM was found to be 79% with SJSA-1 [7]; 30% in the series with U2OS; 42% with HOS; 95% with HOS-TE85 [8]; 92% in the series with MG-63 [9]; 29% in the series with 143B.

For the compound `COc1ccc(N2C(=O)CSC2c2cccc(C(=O)NCCCCc3ccccc3)c2)c(OC)c1` (stereo not drawn), in the series with HOS-TE85 [1], the IC50 was found to be 90.4 nM. The inhibition at 1 µM in the series with SJSA-1 [7] stood at 85%; in the series on U2OS, 37%; in the series on HOS, 82%; with HOS-TE85 [8] it was 58%; with MG-63 [9], 56%; with 143B, 53%.

In the case of `COc1ccccc1N1C(=O)CSC1C(=O)NCCCCc1ccccc1` (stereo not drawn), the IC50 in the series on HOS-TE85 [1] was > 1000 nM. Further, the inhibition at 1 µM is 14% in the series on SJSA-1 [7]; 6% in the series with U2OS; 0% with HOS; 0% in the series with HOS-TE85 [8]; 60% in the series on MG-63 [9]; 4% in the series with 143B.

`Cc1ccnc(N2C(=O)CSC2c2cccc(C(=O)NCCCCn3cccn3)c2)c1` (racemic): the figures for the half-inhibitory concentration (IC50) with HOS-TE85 [1], in the series with SJSA-1 [12] and in the series on MG-63 [13] were 19.6 nM, 33.2 nM and 38.9 nM, respectively. Moreover, the “intrinsic clearance (CLint)” value is 128.7 mL/min/g in series [2], 1022 mL/min/g in series [3] and 392 mL/min/g in [4]. Moreover, the solubility kinetic in [5] and in [6] was 50 µM (≈ 21.8 µg/mL) each time.

Turning to `CCN1C(=O)CSC1c1cccc(C(=O)NCCCCc2ccccc2)c1` (stereo not drawn), the half-inhibitory concentration (IC50) in the series on HOS-TE85 [1] is > 1000 nM. Also, the inhibition at 1 µM in the series on SJSA-1 [7] is 3%; with U2OS it was 13%; in the series with HOS, 6%; in the series with HOS-TE85 [8] it was 0%; in the series with MG-63 [9], 0%; with 143B, 40%.

Take `COc1ccc(F)cc1N1C(=O)CSC1c1cccc(C(=O)NCCCCc2ccccc2)c1` (stereo not drawn): in the series on HOS-TE85 [1], the half-inhibitory concentration (IC50) was 8.8 nM. Also, the figures for the “intrinsic clearance (CLint)” value in series [2], in [3] and in [4] were 1253 mL/min/g, 2298 mL/min/g and 2247 mL/min/g, respectively. Further, the solubility kinetic in [5] and in [6] was 10 µM (≈ 4.79 µg/mL) each time. The inhibition at 1 µM in the series on SJSA-1 [7] was found to be 76%; in the series with U2OS it was 32%; in the series with HOS, 46%; in the series on HOS-TE85 [8], 95%; with MG-63 [9] it was 86%; in the series on 143B, 62%.

Consider `COc1ccc(OC)c(N2C(=O)CSC2c2cccc(C(=O)NCCCCc3ccccc3)c2)c1` (stereo not drawn), for which, in the series on HOS-TE85 [1], the IC50 is > 1000 nM. Further, the inhibition at 1 µM was found to be 48% in the series on SJSA-1 [7]; 1% in the series with U2OS; 5% in the series with HOS; 20% with HOS-TE85 [8]; 92% in the series with MG-63 [9]; 2% in the series on 143B.

Turning to `Cc1cccc(N2C(=O)CSC2c2cccc(C(=O)NCCCCc3ccccc3)c2)c1` (stereo not drawn), the IC50 in the series with HOS-TE85 [1] turned out to be 93.2 nM. In addition, the “intrinsic clearance (CLint)” value in series [2] was 2553 mL/min/g; in [3], 3139 mL/min/g; in series [4], 2936 mL/min/g. Besides, the solubility kinetic in series [5] and in series [6] was 10 µM (≈ 4.45 µg/mL) each time. Also, the inhibition at 1 µM in the series with SJSA-1 [7] turned out to be 84%; in the series on U2OS, 39%; with HOS, 84%; in the series with HOS-TE85 [8], 96%; in the series on MG-63 [9] it was 93%; in the series on 143B it was 71%.

For `COc1ccccc1N1C(=O)CSC1c1cc(F)cc(C(=O)O)c1` (stereo not drawn), the IC50 in the series with HOS-TE85 [1] is > 1000 nM. For the same compound, the inhibition at 1 µM is 0% in the series on SJSA-1 [7]; 15% in the series with U2OS; 8% in the series on HOS; 0% in the series with HOS-TE85 [8]; 0% in the series with MG-63 [9]; 0% in the series with 143B.
